In US9624239B2, “Protein kinase inhibitors” (Pharmascience Inc., priority 2011, dated 2017):

Key:
[1] = tested on: mouse splenocytes; test: Splenic cell proliferation assay (anti-IgM stimulated B cell proliferation, Cell Titer-Glo); format: cell-based; conditions: Splenocyte; CD1 mouse splenocytes, 1 h pre-treatment, 2.5 ug/ml anti-IgM F(ab')2 for 72 h; read-out: EC50 (nM), Inhibition of splenic cell proliferation
Procedure: Splenic Cell Proliferation Assay
Splenocytes were obtained from 6 week old male CD1 mice (Charles River Laboratories Inc.). Mouse spleens were manually disrupted in PBS and filtered using a 70 μm cell strainer followed by ammonium chloride red blood cell lysis. Cells were washed, resuspended in Splenocyte Medium (HyClone RPMI supplemented with 10% heat-inactivated FBS, 0.5× non-essential amino acids, 10 mM HEPES, 50 uM beta mercaptoethanol) and incubated at 37° C., 5% CO2 for 2 h to remove adherent cells. Suspension cells were seeded in 96 well plates at 50,000 cells per well and incubated at 37° C., 5% CO2 for 1 h. Splenocytes were pre-treated in triplicate with 10,000 nM curves of Formula 1 compounds for 1 h, followed by stimulation of B cell proliferation with 2.5 ug/ml anti-IgM F(ab′)2 (Jackson ImmunoResearch) for 72 h. Cell proliferation was measured by Cell Titer-Glo Luminescent Assay (Promega). EC50 values (50% proliferation in the presence of compound as compared to vehicle treated controls) were calculated from dose response compound curves using GraphPad Prism Software.
EC50 values are reported in Table 4: • a—Less than 100 nM; b—less than 1000 nM; c—more than 1000 nM

[2] = biological target: T1, histidine tagged recombinant human full-length Bruton Agammaglobulinemia Tyrosine Kinase (Btk) (Homo sapiens, UniProt Q06187); test: Btk kinase inhibition assay (fluorescence polarization, KinEASE FP Fluorescein Green); format: biochemical; conditions: 10 μM ATP, 250 μM substrate, 60 minutes, room temperature; Ki from IC50 by Cheng-Prusoff; read-out: ki50 (nM), Inhibition of Btk
T1 construct: recombinant human full-length Bruton Agammaglobulinemia Tyrosine Kinase (Btk); histidine tag
Procedure: Kinase Binding Btk and Lck Kinase Inhibition Assay
Fluorescence polarization-based kinase assays were performed in 384 well-plate format using histidine tagged recombinant human full-length Bruton Agammaglobulinemia Tyrosine Kinase (Btk) or histidine tagged recombinant Human Lymphocyte-Specific Protein Tyrosine Kinase (Lck) and a modified protocol of the KinEASE™ FP Fluorescein Green Assay supplied from Millipore. Kinase reaction were performed at room temperature for 60 minutes in presence of 250 μM substrate, 10 μM ATP and variable test article concentrations. The reaction was stopped with EDTA/kinease detection reagents and the polarization measured on a Tecan 500 instrument. From the dose-response curve obtained, the IC50 was calculated using Graph Pad Prisms® using a non-linear fit curve. The Km for ATP on each enzyme was experimentally determined and the Ki values calculated using the Cheng-Prusoff equation (see: Cheng Y, Prusoff W H. (1973) Relationship between the inhibition constant (K1) and the concentration of inhibitor which causes 50 percent inhibition (I50) of an enzymatic reaction”. Biochem Pharmacol 22 (23): 3099-108).
ki values are reported in Tables 2 and 3: • a—Less than 100 nM; b—less than 1000 nM; c—more than 1000 nM

T1 sequence (Q06187 whole entry): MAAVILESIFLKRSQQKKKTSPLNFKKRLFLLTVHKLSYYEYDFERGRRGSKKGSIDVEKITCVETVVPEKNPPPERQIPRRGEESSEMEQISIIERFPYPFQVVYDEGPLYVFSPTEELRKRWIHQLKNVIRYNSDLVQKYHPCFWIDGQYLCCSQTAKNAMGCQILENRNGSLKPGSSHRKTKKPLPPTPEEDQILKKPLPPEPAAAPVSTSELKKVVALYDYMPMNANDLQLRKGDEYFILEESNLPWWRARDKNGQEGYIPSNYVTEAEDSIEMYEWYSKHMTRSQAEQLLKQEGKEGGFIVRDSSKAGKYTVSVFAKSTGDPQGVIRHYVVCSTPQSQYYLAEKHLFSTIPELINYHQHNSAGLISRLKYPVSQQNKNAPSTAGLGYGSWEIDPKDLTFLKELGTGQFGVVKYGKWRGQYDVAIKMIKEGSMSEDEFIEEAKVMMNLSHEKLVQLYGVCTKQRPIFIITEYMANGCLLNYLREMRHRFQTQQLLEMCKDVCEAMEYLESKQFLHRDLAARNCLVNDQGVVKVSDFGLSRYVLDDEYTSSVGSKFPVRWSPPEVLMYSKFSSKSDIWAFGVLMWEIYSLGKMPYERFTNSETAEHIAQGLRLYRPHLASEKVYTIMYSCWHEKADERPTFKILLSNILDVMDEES

Row | Compound | EC50 [1] [nM] | Ki [2] [nM]
1 | CC1OCc2c1c1ncnc(N)c1n2-c1ccc(Oc2cccc(NC(=O)c3ccccc3)c2)cc1 (centres unmarked) [Compound 82] | > 1000 | < 100
2 | CC1OCc2c1c1ncnc(N)c1n2-c1ccc(Oc2cccc(NCc3ccccc3)c2)cc1 (centres unmarked) [Compound 69] | > 1000 | < 100
3 | CC1OCc2c1c1ncnc(N)c1n2-c1ccc(Oc2cccc(O[C@H](C)c3ccccc3)c2)cc1 (some centres unmarked) [Compound 78] | > 1000 | < 1000
4 | COc1cccc(OCc2cccc(Oc3ccc(-n4c5c(c6ncnc(N)c64)C(C)OC5)cc3)c2)c1 (centres unmarked) [Compound 137] | 100 to 1000 | < 100
5 | CC1OCc2c1c1ncnc(N)c1n2-c1ccc(Oc2cccc(OCC3CCCC3)c2)cc1 (centres unmarked) [Compound 140] | 100 to 1000 | < 1000
6 | CC1OCc2c1c1ncnc(N)c1n2-c1ccc(Oc2cccnc2)cc1 (centres unmarked) [Compound 72] | > 1000 | > 1000
7 | CC1OCc2c1c1ncnc(N)c1n2-c1ccc(Oc2cccc(OCC3CC3)c2)cc1 (centres unmarked) [Compound 138] | 100 to 1000 | < 100
8 | CC1OCc2c1c1ncnc(N)c1n2-c1ccc(Oc2cccc(OCCN(C)C)c2)cc1 (centres unmarked) [Compound 48] | – | > 1000
9 | CC(=O)Nc1cccc(Oc2ccc(-n3c4c(c5ncnc(N)c53)C(C)OC4)cc2)c1 (centres unmarked) [Compound 55] | – | < 1000
10 | CC1OCc2c1c1ncnc(N)c1n2-c1ccc(Oc2cccc(N(C)C)c2)cc1 (centres unmarked) [Compound 70] | 100 to 1000 | < 1000
11 | CC(C)C(=O)Nc1cccc(Oc2ccc(-n3c4c(c5ncnc(N)c53)C(C)OC4)cc2)c1 (centres unmarked) [Compound 111] | > 1000 | < 1000
12 | CC1OCc2c1c1ncnc(N)c1n2-c1ccc(Oc2cccc(OCCC3CCCCC3)c2)cc1 (centres unmarked) [Compound 124] | 100 to 1000 | < 100
13 | Nc1ncnc2c3c(n(-c4ccc(Oc5ccccc5)cc4)c12)CN(Cc1ccccc1)C3 [Compound 10] | – | > 1000
14 | NCC(=O)N1CCc2c(c3ncnc(N)c3n2-c2ccc(Oc3ccccc3)cc2)C1 [Compound 17] | – | > 1000
15 | Nc1ncnc2c3c(n(-c4ccc(Oc5ccccc5)cc4)c12)CCN(Cc1ccccc1)C3 [Compound 11] | – | > 1000
16 | Cc1nc(COc2cccc(Oc3ccc(-n4c5c(c6ncnc(N)c64)C(C)OC5)cc3)c2)cs1 (centres unmarked) [Compound 102] | 100 to 1000 | < 100
17 | Nc1ncnc2c3c(n(-c4ccc(Oc5ccccc5)cc4)c12)CCN(C(=O)c1ccccc1)C3 [Compound 16] | – | > 1000
18 | Nc1ncnc2c3c(n(-c4ccc(Oc5ccccc5)cc4)c12)CN(C(=O)OCc1ccccc1)C3 [Compound 5] | – | > 1000
19 | Nc1ncnc2c3c(n(-c4ccc(Oc5ccccc5)cc4)c12)CCN(S(=O)(=O)c1ccccc1)C3 [Compound 12] | – | > 1000
20 | CC1OCc2c1c1ncnc(N)c1n2-c1ccc(Oc2cccc(OCc3ccc(C(N)=O)cc3)c2)cc1 (centres unmarked) [Compound 98] | – | < 100
21 | CC(=O)Nc1ccc(COc2cccc(Oc3ccc(-n4c5c(c6ncnc(N)c64)C(C)OC5)cc3)c2)cc1 (centres unmarked) [Compound 109] | – | < 1000
22 | CC1OCc2c1c1ncnc(N)c1n2-c1ccc(Oc2cccc(N3CCOCC3)c2)cc1 (centres unmarked) [Compound 91] | – | < 1000
23 | CC1OCc2c1c1ncnc(N)c1n2-c1ccc(Oc2cccc(N)c2)cc1 (centres unmarked) [Compound 47] | – | < 1000
24 | Nc1ncnc2c3c(n(-c4ccc(Oc5ccccc5)cc4)c12)CCN(C(=O)OCc1ccccc1)C3 [Compound 6] | – | > 1000
25 | CC1OCc2c1c1ncnc(N)c1n2-c1ccc(Oc2cccc(OCc3cncn3C)c2)cc1 (centres unmarked) [Compound 93] | – | < 100
26 | NCC(=O)N1Cc2c(n(-c3ccc(Oc4ccccc4)cc3)c3c(N)ncnc23)C1 [Compound 19] | – | > 1000
27 | CC1OCc2c1c1ncnc(N)c1n2-c1ccc(Oc2cccc(OCCN3CCOCC3)c2)cc1 (centres unmarked) [Compound 51] | – | > 1000
28 | CC1OCc2c1c1ncnc(N)c1n2-c1ccc(Oc2cccc(OCCN3CCCC3)c2)cc1 (centres unmarked) [Compound 52] | – | > 1000
29 | CC1OCc2c1c1ncnc(N)c1n2-c1ccc(Oc2ccccc2)nc1 (centres unmarked) [Compound 88] | – | > 1000
30 | CC1OCc2c1c1ncnc(N)c1n2-c1ccc(Oc2cccc(OCc3ccccc3C(N)=O)c2)cc1 (centres unmarked) [Compound 101] | – | < 1000
